Experimental findings from BindingDB's records for doi:10.1016/j.bmc.2020.115887 (Duquesne University, 2021) are described below.

The nature of the assay: Inhibition of beta3 Tubulin (unknown origin) expressed in human HeLa cell line assessed as inhibition of cell proliferation measured after 48 hrs by SRB method. In general terms: In SRB staining, fixed cells bind dye roughly in proportion to their protein.

Usually IC50 stands for the midpoint of a concentration-inhibition curve. For `COc1cccc2cc(N(C)c3nc(N)nc4c3CCC4)ccc12`, the IC50 came to 9.6 nM. The same measure for `COc1ccc(N(C)c2nc(C)nc3c2CCC3)cc1`: 9.6 nM; for `COc1ccc(N(C)c2nc(C)nc3c2CCC3)c2ccccc12`: 180 nM; for `COc1cccc2cc(N(C)c3ncnc4c3CCC4)ccc12`: 43 nM.
